Test results taken from US20260248809A1, “ESTRADIOL PRODRUGS AND METHODS OF USE THEREOF” (UNIVERSITY OF MARYLAND, BALTIMORE, priority 2022, published 2026).

Tests used:
Format in all cases: in vivo, mouse
mice = test: Acoustic startle response after traumatic foot shock stress; settings: acute foot shock stress, 10 mm silastic implant
Description: Determine the role of E2 in traumatic stress-induced changes in startle response in males and females. Heightened startle reactivity is a DSM diagnostic criteria for PTSD. Individuals suffering from PTSD frequently report subjective elevations in startle response and objective studies have described increased startle reactivity in individuals with PTSD. Moreover, physiological startle response is correlated with the severity of self-reported hyperarousal symptom domains and attenuated by interventions that improve PTSD symptoms. In rodents, like humans, the startle response can be elicited by acoustic stimuli (acoustic startle response, ASR) and involves eyelid closure and skeletal muscle contractions. While ASR is frequently assessed via the eye blink reflex in humans, it can be accurately assayed via whole-body movements in rodents. Importantly, elevated ASR has been reported in rodents following traumatic stress, including electrical shock and social defeat stress. ASR is utilized as a measure of hyperarousal in mice following traumatic stress. Similar to previously described methods, ASR is assessed following acute foot shock stress. Baseline ASR is assessed over 10 startle stimuli (110 dB, pseudo-randomized average inter-stimulus interval of 30 sec). […] Changes in ASR are measured 24 hours after shock using the same startle protocol. […]

[1] = Body, testis and seminal vesicle weights after hormonal treatments
Method: For the chronic administration paradigms, silastic tubes (1.02 mm inner diameter×2.16 mm outer diameter) were filled with testosterone (10 mm) or 17β-Estradiol (E2; 1,3 and 10 mm; Sigma-Aldrich, St. Louis, MO, USA). Silastic implants were primed in 0.9% saline at 37° C. overnight prior to their subcutaneous use. Letrozole (1 mg/kg/day; Sigma-Aldrich, St. Louis, MO, USA) was dissolved in propylene glycol (MP Biomedicals, Santa Ana, CA, USA) and administered through ALZET minipumps (Model 1002, 0.25 μl/hour, 14 days; Cupertino, CA, USA). DHED (synthesized using previously described methods) was dissolved in 0.9% saline and administered through ALZET minipumps (Model 1002, 0.25 μl/hour, 14 days; Cupertino, CA, USA) at a dose of […]. Flutamide was administered through 1.5 mg slow-release subcutaneous pellets (Innovative Research of America, Sarasota, FL, USA). For acute administration, 17β-Estradiol (E2; 10 and […]) was dissolved in sesame oil (4 ml/kg, s.c.; Sigma-Aldrich, St. Louis, MO, USA).
Subcutaneous implantations were performed during the same time as the orchiectomies. The surgical area was thoroughly cleaned with Betadine solution (10% povidone-iodine surgical scrub) followed by 70% ethanol. A small, approximately 1-cm incision was made between the scapulae using a pair of small sterile surgical scissors. Hemostats were then inserted and spread laterally to the incision to create a cavity in the subcutaneous space in which ALZET mini-osmotic pumps or silastic implants were inserted for continuous drug/vehicle delivery. The skin was closed with suturing.

male mice = test: Acquisition, extinction and reinstatement of cued (Pavlovian) fear; settings: non-stressed orchiectomized males, 10 mm silastic implant
Method: Determine the role of E2 in the normal acquisition, extinction, and reinstatement of cued (Pavlovian) fear responses in males. The effect of orchiectomy on the acquisition, extinction, and reinstatement of fear in non-stressed male animals is determined. It has previously been reported that orchiectomy enhances tone conditioned freezing in male mice, which was prevented with systemic testosterone administration. It has also been reported that orchiectomy delayed extinction of fear responses in male rats. The role of E2 is known in mediating fear responses, extinction, and related cognitive functions in female rodents. Fear conditioning takes place in Coulbourn shuttle boxes. The floor of the chambers consists of parallel rods connected to a Coulbourn shock source that delivers foot shocks. A speaker mounted on the top of the chamber delivers an acoustic conditioned stimulus (pure tone). […] Mice are placed in the chamber for a 3 min habituation period, wherein baseline freezing to the novel context will be assessed. […] One week later, mice are assessed for reinstatement of the conditioned fear. […] Time spent freezing across CS presentations during the extinction procedure (Days 2 and 3) is assessed with Coulbourn automated FreezeFrame software. […] If differences between the groups are detected, then whether these effects are due to altered shock sensitivity, are assessed.

Row | SMILES | increased startle after stress+orchiectomy (mice) | body weight ([1]; chronic treatment) | seminal vesicle weight ([1]; chronic treatment) | relative seminal vesicle weights ([1]; s.c. treatment, compared to vehicle (saline) control) | orchiectomy-enhanced fear conditioning and reduced rate of extinction (male mice) | testis weight ([1]; chronic treatment)
1 | C[C@]12CC[C@@H]3c4ccc(O)cc4CC[C@H]3[C@@H]1CC[C@@H]2O [Example E2, 17β-Estradiol] | recoverable | increased body weight | increased | significant increase | reverse this effect | –
2 | C[C@]12CC[C@H]3[C@@H](CCC4=CC(=O)CC[C@@]43C)[C@@H]1CC[C@@H]2O [Testosterone, testosterone] | recoverable | increased body weight | reversed | – | prevented by testosterone | decreased testis weight
